Reference: PMC7180484 (Molecules, 2020)

Key:
[1] = tested on: PC12 cells; test: Neuroprotection against H2O2 induced oxidative stress cytotoxicity in PC12 cells (MTT assay); assay type: cell-based, rat; settings: compound 40 μM; H2O2 200 µM; negative control 31% viability
Procedure: Cell viability was determined through trypan blue dye exclusion assay and cells were seeded to 96 well tissue culture plate at a 5 × 10^5 cells/well concentration. Pre-incubation with compounds were given to PC12 cells prior to inducing H2O2 cytotoxicity for 18 h. MTT was added to the well at 5 mg/mL concentration and incubated in the dark for enzymatic reaction by live cells for 2 h. DMSO was added to well to dissolve formazan crystals and absorbance was recorded at 570 nm. PC12 cells relative survival was calculated compared to control (PC12 cells only).

[2] = target: T1, AChE (Electrophorus electricus, UniProt O42275); test: biochemical; settings: for SI (selectivity index): AChE selectivity over BuChE, IC50 BuChE/IC50 AChE; for IC50: mean ± SD, three replicate determinations
T1 construct: acetylcholinesterase from electric eel; purchased Sigma Aldrich, India
Excerpt: (§1) MAO-B inhibition kit by Biovision. BACE-1 activity assay kit by Sigma Aldrich. […] PC12 (rat pheochromocytoma) cell line was obtained from NCCS, Pune, India. All other reagents used were of analytical grade. All preparations used in tissue culture experiments were filtered through 0.45 µm Axiva 25 mm CA filter. Ethical approval was obtained from GGS Indrapratha University for all the cell culture work done in proper confined facilities.
(§2) Five microliters of enzyme (AChE and BuChE) solution at 0.03 U/mL final assay concentration; 200 μL of phosphate buffer (pH 8); 5 μL of DTNB (0.3 mM); and 5 μL of test compounds were pre-incubated for 15 min at RT. The reaction was initiated by adding 5 μL of substrate (ATChI and BuTChI) at a final concentration of 0.5 mM. The control for relative absorbance consisted of the buffer in place of the test compounds and the enzyme and substrate blank were devoid of enzyme and the substrate, respectively.

[3] = target: T2, BuChE (Equus caballus, UniProt P81908); test: biochemical; settings: mean ± SD, three replicate determinations
T2 construct: butyrylcholinesterase from equine serum; purchased Sigma Aldrich, India; host or cells: equine serum
Excerpt: as §1, §2

[4] = tested on: PC12 cells; test: Aβ42 induced neurotoxicity in PC12 cells (MTT assay); settings: 24 h
Procedure: Cells were seeded in 96 well plate in log phase of growth at concentration 5 × 10^5 cells per well. […] MTT solution was added to the wells and incubated in dark, for the live cells to convert the tetrazolium salt in purple formazan crystals. The formazan crystals were dissolved using DMSO and absorbance was measured at 570 nm. Relative survival percentage of PC12 cells was calculated compared to control (PC12 cells only). All measurements were performed in triplicates and all experiments were repeated thrice individually.

[5] = target: T3, Aβ42 (Homo sapiens, UniProt P05067); test: Transmission electron microscopy of Aβ42 aggregates; design: Aβ42—Amyloid beta 1-42 residues; purchased Link biotech (named in a list that ends 'purchased from Sigma Aldrich, India'); settings: Aβ42 + 44 μM compound, 37 °C, 48 h; control: abundant long, branched, dense fibrils
Procedure: 5 μL Aβ42 prepared fibril samples (22 μM) Aβ42 alone and Aβ42 with RES and AJM) were loaded on carbon stabilized, formvar coated grid for 40 sec. Ashless filter paper was used to wipe out extra sample from the edges of the grid. Loaded grid was negatively stained with 1% uranyl acetate for 20 sec and air-dried. Grid was then examined and photographed on JEOL 2100F transmission electron microscope.

[6] = target: T3, Aβ42; test: Circular dichroism spectroscopy of Aβ42 secondary structure (BeStSel); assay type: biochemical; design: Aβ42—Amyloid beta 1-42 residues; purchased Link biotech (named in a list that ends 'purchased from Sigma Aldrich, India'); settings: for Secondary structure content: Others / Secondary structure content: α-helix / Secondary structure content: Turn / Secondary structure content: β-sheet (parallel) / Secondary structure content: β-sheet (antiparallel): Aβ42 22 μM + compound 22 μM, BeStSel from CD spectra; for Secondary structure content: Others / Secondary structure content: α-helix: Aβ42 control 0.0; for Secondary structure content: Turn: Aβ42 control 8.6; for Secondary structure content: β-sheet (parallel): Aβ42 control 16.5; for Secondary structure content: β-sheet (antiparallel): Aβ42 control 74.9; for inhibition in β-sheet formation: compared to control (Aβ42 only), CD, 48 h incubation
Procedure: Secondary structure of Aβ42 peptides were recorded as far UV circular dichroism spectra using Chirascan (Applied PhotoPhysics, New Delhi, India) instrument and software. 22 μM Aβ42 samples (22 μM Aβ42 alone and Aβ42 with RES and AJM) were mixed well ensuring a homogenous suspension and transferred to quartz cell for CD spectra scanning. CD spectra was recorded from 200–260 nm at RT using a bandwidth of 1.0 nm, times per point 0.5 sec, a step interval of 1 nm, and 10 mm path length. Five scans of each sample were measured and averaged. Averaged control buffer scans were subtracted from the sample spectra. The results of CD measurement were plotted as graph between measured ellipticity (millidegree) and wavelength (nm). The secondary structure contents (α-helix, β-sheet, turn, and random coil) of the Aβ42 peptide samples were estimated from the CD spectra using the CD Pro software. Relative percentage of reduced β-sheet content in Aβ42 samples treated with RES and AJM was calculated using BeStSel software.

[7] = target: T3, Aβ42; test: Congo red dye binding (red shift) assay with Aβ42 fibrils; settings: CR only 490 nm, Aβ42 only 530 nm
Procedure: Aβ42 alone sample was used as control. Samples were incubated at 37 °C at 260 rpm for 48 h in the shaker incubator.
Congo red (200 μM) was dissolved in a 50 mM phosphate buffer (pH 7.4) consisting of 50 mM NaCl and 10% ethanol and filtered through 0.45 µm CA membrane filter. The Aβ42 concentration was fixed at 10 µM in the reaction mixture. […] The absorbance spectra (400–650 nm) of the samples were recorded with a UV-visible spectrophotometer [27]. All experiments had three technological and three biological repeats.

[8] = target: T4, MAO-B (Homo sapiens, UniProt P27338); test: MAO-B inhibition assay (Biovision fluorometric kit); assay type: biochemical
T4 construct: purchased Biovision
T4 sequence (P27338 1-520): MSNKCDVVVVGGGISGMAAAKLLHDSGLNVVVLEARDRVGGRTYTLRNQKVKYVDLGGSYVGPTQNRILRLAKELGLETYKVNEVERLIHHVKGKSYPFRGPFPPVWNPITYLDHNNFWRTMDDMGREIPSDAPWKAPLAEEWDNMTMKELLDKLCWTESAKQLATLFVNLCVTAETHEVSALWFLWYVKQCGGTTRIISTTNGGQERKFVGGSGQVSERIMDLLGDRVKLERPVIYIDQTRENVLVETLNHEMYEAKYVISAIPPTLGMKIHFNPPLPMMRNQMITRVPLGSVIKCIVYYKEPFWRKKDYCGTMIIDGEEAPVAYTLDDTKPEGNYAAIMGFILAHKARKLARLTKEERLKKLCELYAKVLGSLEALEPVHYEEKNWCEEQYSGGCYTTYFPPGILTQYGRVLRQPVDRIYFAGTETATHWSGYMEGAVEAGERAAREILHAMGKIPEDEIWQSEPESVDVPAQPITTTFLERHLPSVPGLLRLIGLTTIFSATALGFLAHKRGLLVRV
Procedure: MAO-B (EC 1.4.3.4) activity inhibition was assayed using Biovision inhibition screening kit (fluorometric). With all reaction components at room temperature, 0.2 U enzyme was pre-incubated with compounds under study and incubated for 10 min. Working substrate was prepared fresh by adding developer and oxired probe with assay buffer according to kit instructions. Substrate was added to the reaction and incubated for 10 min; zero-minute fluorescence was recorded (Ex 535 nm, Em 587 nm) to serve as control for relative fluorescence inhibition calculation.

[9] = target: T3, Aβ42; test: ThT fluorescence assay of Aβ42 fibril formation (anti-aggregation); assay type: biochemical; design: Aβ42—Amyloid beta 1-42 residues; purchased Link biotech (named in a list that ends 'purchased from Sigma Aldrich, India'); settings: vs control (Aβ42 only), 48 h; for inhibition of Aβ42 aggregation (ThT fluorescence): at 44 μM
Procedure: Aβ42 samples were incubated with or without compounds at different concentrations, after 48 h of fibril formation samples from each experimental set were withdrawn and mixed with ThT in opaque micro titer plate. The reactions were then incubated in dark at 37 °C for 30 min for ThT probe to bind the formed amyloid fibrils. The ThT was excited at 450 nm and spectra were recorded from 400 to 650 nm.

[10] = target: T5, BACE-1 (Homo sapiens, UniProt P56817); test: In vitro BACE-1 enzyme inhibition assay (FRET kit); assay type: biochemical
T5 construct: purchased Sigma Aldrich
Procedure: BACE-1 (EC 3.4.23.46) activity inhibition was assayed using FRET (fluorescence resonance energy transfer) kit (Sigma Aldrich, New Delhi, India). With all reaction components at RT, 50 μM substrate was added to 75 μL assay buffer containing RES and AJM (25, 50, 100 μM) in the microtiter plate. Reaction was initiated by the addition of 0.03 U BACE-1 enzyme in the well and zero minute fluorescence was recorded (Ex 350 nm, Em 405 nm). After 2 h incubation in dark at 37 °C, reaction fluorescence was recorded every one hour for next three hours. Relative fluorescence inhibition was calculated from zero minute fluorescence reading as control. Three individual experiments were performed.

T3 sequence (P05067 672-713 limits assumed): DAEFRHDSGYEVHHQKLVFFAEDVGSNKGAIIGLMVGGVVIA
T1 sequence (O42275 24-633): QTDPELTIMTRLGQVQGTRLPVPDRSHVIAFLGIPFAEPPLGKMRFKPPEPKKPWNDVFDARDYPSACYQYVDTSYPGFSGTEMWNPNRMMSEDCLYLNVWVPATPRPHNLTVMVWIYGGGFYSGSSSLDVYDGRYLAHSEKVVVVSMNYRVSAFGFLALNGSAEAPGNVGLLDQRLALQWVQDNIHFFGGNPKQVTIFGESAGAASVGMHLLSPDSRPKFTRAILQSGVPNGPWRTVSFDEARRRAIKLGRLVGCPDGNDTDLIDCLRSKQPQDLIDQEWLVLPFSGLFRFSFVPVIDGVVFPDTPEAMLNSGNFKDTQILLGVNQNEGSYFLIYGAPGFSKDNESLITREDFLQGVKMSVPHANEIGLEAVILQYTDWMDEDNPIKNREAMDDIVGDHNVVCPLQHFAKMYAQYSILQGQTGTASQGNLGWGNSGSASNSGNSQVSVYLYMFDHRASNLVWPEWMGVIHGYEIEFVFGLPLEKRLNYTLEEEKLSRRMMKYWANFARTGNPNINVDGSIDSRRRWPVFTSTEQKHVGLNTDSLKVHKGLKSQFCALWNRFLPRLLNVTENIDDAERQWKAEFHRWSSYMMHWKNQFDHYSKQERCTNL
T5 sequence (P56817 46-501): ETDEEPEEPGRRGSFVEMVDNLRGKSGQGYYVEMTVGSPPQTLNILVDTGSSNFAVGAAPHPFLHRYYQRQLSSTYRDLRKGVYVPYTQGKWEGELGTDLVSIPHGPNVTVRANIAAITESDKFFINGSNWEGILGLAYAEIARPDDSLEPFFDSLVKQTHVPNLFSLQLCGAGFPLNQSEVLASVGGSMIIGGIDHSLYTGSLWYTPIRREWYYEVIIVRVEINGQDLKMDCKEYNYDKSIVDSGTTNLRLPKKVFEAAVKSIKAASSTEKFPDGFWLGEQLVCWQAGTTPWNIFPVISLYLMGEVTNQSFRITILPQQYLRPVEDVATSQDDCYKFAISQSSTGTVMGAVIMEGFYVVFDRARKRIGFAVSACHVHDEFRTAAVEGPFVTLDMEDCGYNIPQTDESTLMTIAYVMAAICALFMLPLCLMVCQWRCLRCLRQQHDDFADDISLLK
T2 sequence (P81908 whole entry): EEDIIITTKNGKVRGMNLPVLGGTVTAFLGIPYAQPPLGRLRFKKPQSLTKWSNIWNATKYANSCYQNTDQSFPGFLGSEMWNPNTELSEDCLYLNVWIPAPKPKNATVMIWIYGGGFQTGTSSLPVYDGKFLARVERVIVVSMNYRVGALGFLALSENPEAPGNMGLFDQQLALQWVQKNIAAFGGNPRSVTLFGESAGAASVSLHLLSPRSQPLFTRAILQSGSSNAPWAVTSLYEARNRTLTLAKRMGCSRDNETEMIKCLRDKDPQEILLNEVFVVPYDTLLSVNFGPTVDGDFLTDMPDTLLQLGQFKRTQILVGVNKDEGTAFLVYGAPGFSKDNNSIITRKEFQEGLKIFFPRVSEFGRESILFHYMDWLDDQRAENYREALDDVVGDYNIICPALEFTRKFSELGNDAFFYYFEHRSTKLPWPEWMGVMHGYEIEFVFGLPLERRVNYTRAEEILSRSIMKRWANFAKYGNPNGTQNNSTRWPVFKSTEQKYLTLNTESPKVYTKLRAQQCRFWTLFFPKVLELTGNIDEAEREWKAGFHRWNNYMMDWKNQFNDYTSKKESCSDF

Molecule	survival of PC12 cells against H2O2 induced oxidative stress (MTT) [1] [%]	SI (selectivity index) [2]	IC50 [2] [µM]	IC50 [3] [µM]	morphology of Aβ42 aggregates by TEM [5]	Secondary structure content: Others [6] [%]	Secondary structure content: α-helix [6] [%]	Secondary structure content: Turn [6] [%]	Secondary structure content: β-sheet (parallel) [6] [%]	Secondary structure content: β-sheet (antiparallel) [6] [%]	inhibition in β-sheet formation [6] [%]	Congo red absorbance wavelength (red shift) with Aβ42 ([7]; Aβ42 + compound 22 μM) [nm]	Congo red absorbance wavelength (red shift) with Aβ42 ([7]; Aβ42 + compound 44 μM) [nm]	inhibition of Aβ42 aggregation (ThT fluorescence) [9] [%]	survival of PC12 cells against Aβ42 cytotoxicity (MTT) ([4]; rat, 40 μM) [%]	other results
COC(=O)C1=CO[C@@H](C)[C@H]2CN3CCc4c([nH]c5ccccc45)[C@@H]3C[C@H]12 [Ajmalicine]	89	1.55	3.5 ± 1.41	5.44 ± 1.75	shorter, loose, and less Aβ42 fibrils along with small oligomers	53.1	0.0	11.7	0.0	35.2	53	510	510	57	–	AChE inhibition ([2]; at 50 μM): 90%; survival of PC12 cells against Aβ42 cytotoxicity (MTT) ([4]; compound 40 μM, Aβ42 fibrils 40 μM): 67%; MAO-B inhibition ([8]; at 40 μM): 89%; inhibition of BACE-1 activity ([10]; at 50 μM): 69%
COC(=O)[C@H]1[C@H]2C[C@@H]3c4[nH]c5cc(OC)ccc5c4CCN3C[C@H]2C[C@@H](OC(=O)c2cc(OC)c(OC)c(OC)c2)[C@@H]1OC [Reserpine]	93	1.65	1.7 ± 2.08	2.8 ± 1.84	shorter, loose, and less Aβ42 fibrils along with small oligomers	54.9	0.0	17.8	0.0	27.3	64	510	510	–	92	inhibition at 50 µM ([2]; read-out: AChE inhibition): 96%; inhibition at 40 µM [8]: 89%; inhibition at 44 µM [9]: 69%; inhibition at 50 µM [10]: 47%
N[C@@H](CCC(=O)N[C@@H](CS)C(=O)NCC(=O)O)C(=O)O [glutathione]	91	–	–	–	–	–	–	–	–	–	–	–	–	–	–	–
NCCCS(=O)(=O)O [homotaurine]	–	–	–	–	–	–	–	–	–	–	–	–	–	–	58	–
Tannic acid	–	–	–	–	–	–	–	–	–	–	–	–	–	85	–	–
